According to patent US4140764A, “β-Lactamase inhibitors and process for their preparation” (priority 1975, dated 1979):
Structures can show the parent of a compound that is named as a salt. Each block holds one molecule with its values, some of them ahead of it.

Assays:
Escherichia coli B 11 = experiment: Antibacterial synergism, microtitre method (Example 42); format: cell-based; settings: B11, Table 5, inoculum 0.5 × 10^-2, read-out: Minimum Inhibitory Concentration, compound alone
Klebsiella aerogenes A = experiment: as above; format: cell-based; settings: Table 8, strain A
Enterobacter cloacae = experiment: as above; format: cell-based; settings: Table 5, inoculum 0.5 × 10^-2, read-out: Minimum Inhibitory Concentration, compound alone
[1] = tested on: Klebsiella Aerogenes E 70; experiment: as above; format: cell-based; settings: Table 8, strain E 70
Klebsiella Aerogenes 62 = experiment: as above; format: cell-based; settings: Table 8, strain 62
[2] = tested on: Staphylococcus aureus (Russell); experiment: Synergism of clavulanic acid methyl ester, M.I.C. (Example 32); format: cell-based
Proteus mirabilis C889 = experiment: as above; format: cell-based
[3] = target: T1, β-lactamase of E. coli JT410 (Escherichia coli, UniProt P00811); experiment: standard enzyme inhibitory assay (Example 49); format: biochemical; settings: read-out: I50 (converted)
T1 construct: E. coli JT410; endogenous in cells; host or cells: Escherichia coli JT410

[4] = tested on: Staphylococcus aureus (Russell); experiment: Antibacterial synergism, microtitre method (Example 42); format: cell-based
[5] = Hydrolysis of the methyl ester to clavulanic acid in pH 7 buffer; format: physicochemical
Source text: Many esters of clavulanic acid differ from analagous esters of penicillins or cephalosporins in that they show an enhanced tendency to hydrolyze to clavulanic acid under mild conditions. […] Esters which undergo some hydrolysis under mild conditions are included within the formula (IX): [drawing 8] wherein R^1 is a hydrocarbon group of 1- 9 carbon atoms optionally substituted by halogen, lower alkoxy, hydroxyl or optionally salted basic groups of the formula NR^2 R^3 wherein R^2 is a hydrogen atom or a lower alkyl group, R^3 is a hydrogen atom or a lower alkyl group or is attached to R^2 so that NR^2 R^3 is a 5- or 6- membered ring.
The reaction was followed by paper chromatography (bioautographic system). Using the butanol/ethanol/water system to follow the reaction over a period of 2 hours the zone of the methyl ester at Rf 0.79 decreased in size as the zone of clavulanic acid at Rf 0.12 increased.

Staphylococcus aureus = experiment: Antibacterial synergism, microtitre method (Example 42); format: cell-based; settings: Table 6

T1 sequence (P00811 20-377): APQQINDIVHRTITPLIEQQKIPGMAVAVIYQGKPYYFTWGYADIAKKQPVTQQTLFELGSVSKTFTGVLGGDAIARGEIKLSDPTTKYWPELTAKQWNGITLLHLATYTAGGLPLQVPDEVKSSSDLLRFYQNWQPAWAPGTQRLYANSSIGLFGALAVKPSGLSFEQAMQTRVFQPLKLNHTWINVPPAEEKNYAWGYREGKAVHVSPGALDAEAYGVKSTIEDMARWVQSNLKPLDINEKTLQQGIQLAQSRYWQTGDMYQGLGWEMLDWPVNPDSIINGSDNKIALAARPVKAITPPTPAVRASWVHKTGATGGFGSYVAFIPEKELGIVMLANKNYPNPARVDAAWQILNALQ

- MIC (Escherichia coli B 11): > 500 µg/mL
- MIC of Ampicillin + 5 μg/ml of Benzyl Ester of clavulanic acid (Klebsiella aerogenes A): 1.9 µg/mL
- MIC of Ampicillin + 5 μg/ml of Methyl Ester of clavulanic acid (Klebsiella aerogenes A): 1.9 µg/mL
- MIC (Enterobacter cloacae): 250 µg/mL
- MIC of Ampicillin + 5 μg/ml of Benzyl Ester of clavulanic acid [1]: 3.9 µg/mL
- MIC of Ampicillin + 5 μg/ml of Methyl Ester of clavulanic acid [1]: 3.9 µg/mL
- MIC of Ampicillin + 5 μg/ml of Benzyl Ester of clavulanic acid (Klebsiella Aerogenes 62): 3.9 µg/mL
- MIC of Ampicillin + 5 μg/ml of Methyl Ester of clavulanic acid (Klebsiella Aerogenes 62): 3.9 µg/mL
SMILES: CC1(C)S[C@@H]2[C@H](NC(=O)[C@H](N)c3ccccc3)C(=O)N2[C@H]1C(=O)O [ampicillin]
- M.I.C. of antibiotic in the presence of 1.0 μg/ml. clavulanic acid methyl ester [2]: < 0.4 µg/mL
- M.I.C. of ampicillin in the presence of 5 μg/ml. clavulanic acid methyl ester (Proteus mirabilis C889): 31 µg/mL

SMILES: O=C(COc1ccccc1)OC/C=C1\O[C@@H]2CC(=O)N2[C@H]1C(=O)OCc1ccccc1 [benzyl phenoxyacetylclavulanate, Benzyl Phenoxyacetylclavulanate]
- IC50 [3]: 3.54 µM

SMILES: O=C(Cc1cccs1)N[C@@H]1C(=O)N2C(C(=O)[O-])=C(C[n+]3ccccc3)CS[C@H]12 [cephaloridine]
- Minimum Inhibitory Concentration of cephaloridine with synergist added at 1 μg/ml instead of 5 μg/ml [4]: Same value

- conversion of the ester to clavulanic acid ([5]; 1 mg/ml, 37° C., 0.05M phosphate buffer pH 7, followed over 2 hours): Slow conversion
- hydrolysis to clavulanic acid ([5]; water buffered to pH7): slowly hydrolyze
SMILES: COC(=O)[C@H]1/C(=C/CO)O[C@@H]2CC(=O)N21 [clavulanic acid methyl ester]

SMILES: O=C(O)[C@H]1/C(=C/CO)O[C@@H]2CC(=O)N21 [clavulanic acid sodium salt, 3-(β-hydroxyethylidine)-7-oxo-4-oxa-1-azabicyclo [3,2,0]heptane-2-carboxylic acid sodium salt]
- Minimum Inhibitory Concentration, compound alone ([4]; Table 6): 15 µg/mL
- Minimum Inhibitory Concentration, compound alone (Staphylococcus aureus): 62 µg/mL
